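In this assay, cells in 96-well plates receive the compound at five concentrations for 48 hours. Endpoints are linearly interpolated between the surrounding concentrations. Abbreviation: GI50, concentration required for 50% inhibition of growth.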 Active and inactive are the calls of the source. No stated cut-off is given here; in the data, active = GI50 up to about 1.1 µM and inactive = higher.
Columns and labels:
Assay in all cases: NCI anticancer screen, dose series, 48 h
CCRF-CEM = test system: CCRF-CEM
SF-539 = test system: SF-539
HCT-116 = test system: HCT-116
OVCAR-8 = test system: OVCAR-8
SNB-19 = test system: SNB-19
OVCAR-3 = test system: OVCAR-3
SK-MEL-5 = test system: SK-MEL-5
SK-MEL-2 = test system: SK-MEL-2
RPMI-8226 = test system: RPMI-8226
MOLT-4 = test system: MOLT-4
BT-549 = test system: BT-549
OVCAR-5 = test system: OVCAR-5
EKVX = test system: EKVX
K562 = test system: K562
MDA-MB-435 = test system: MDA-MB-435
786-0 = test system: 786-0
COLO 205 = test system: COLO 205
KM12 = test system: KM12
SNB-75 = test system: SNB-75
ACHN = test system: ACHN
IGROV-1 = test system: IGROV-1
NCI-H226 = test system: NCI-H226
A498 = test system: A498
NCI-H460 = test system: NCI-H460
SN12C = test system: SN12C
HOP-92 = test system: HOP-92
SW-620 = test system: SW-620
SF-295 = test system: SF-295
UACC-257 = test system: UACC-257
U-251 = test system: U-251
HCC 2998 = test system: HCC 2998
SK-OV-3 = test system: SK-OV-3
UO-31 = test system: UO-31
T47D = test system: T47D
M14 = test system: M14
LOX IMVI = test system: LOX IMVI
NCI/ADR-RES = test system: NCI/ADR-RES
MCF7 = test system: MCF7
CAKI-1 = test system: CAKI-1
HL-60 = test system: HL-60
NCI-H23 = test system: NCI-H23
A549 = test system: A549
SK-MEL-28 = test system: SK-MEL-28
SR = test system: SR
HOP-62 = test system: HOP-62
PC-3 = test system: PC-3
UACC-62 = test system: UACC-62
HCT-15 = test system: HCT-15
MDA-N = test system: MDA-N
DU-145 = test system: DU-145
HT-29 = test system: HT-29
Malme-3M = test system: Malme-3M
NCI-H522 = test system: NCI-H522
Hs-578T = test system: Hs-578T
OVCAR-4 = test system: OVCAR-4
RXF 393 = test system: RXF 393
TK-10 = test system: TK-10
SF-268 = test system: SF-268

N#C/C(C(=O)Nc1ccc(Cl)cc1)=C(/N)N1CCCCC1
GI50 (CCRF-CEM): > 100 µM (inactive)
GI50 (SF-539): 75.7 µM (inactive)
GI50 (HCT-116): 99.5 µM (inactive)
GI50 (OVCAR-8): 41.2 µM (inactive)
GI50 (SNB-19): 36.8 µM (inactive)
GI50 (OVCAR-3): > 100 µM (inactive)
GI50 (SK-MEL-5): > 100 µM (inactive)
GI50 (SK-MEL-2): > 100 µM (inactive)
GI50 (RPMI-8226): > 100 µM (inactive)
GI50 (MOLT-4): > 100 µM (inactive)
GI50 (BT-549): > 100 µM (inactive)
GI50 (OVCAR-5): > 100 µM (inactive)
GI50 (EKVX): 45.1 µM (inactive)
GI50 (K562): > 100 µM (inactive)
GI50 (MDA-MB-435): > 100 µM (inactive)
GI50 (786-0): > 100 µM (inactive)
GI50 (COLO 205): > 100 µM (inactive)
GI50 (KM12): > 100 µM (inactive)
GI50 (SNB-75): 24.7 µM (inactive)
GI50 (ACHN): > 100 µM (inactive)
GI50 (IGROV-1): 66.5 µM (inactive)
GI50 (NCI-H226): 92.3 µM (inactive)
GI50 (A498): > 100 µM (inactive)
GI50 (NCI-H460): > 100 µM (inactive)
GI50 (SN12C): > 100 µM (inactive)
GI50 (HOP-92): > 100 µM (inactive)
GI50 (SW-620): > 100 µM (inactive)
GI50 (SF-295): 54 µM (inactive)
GI50 (UACC-257): > 100 µM (inactive)
GI50 (U-251): 56.5 µM (inactive)
GI50 (HCC 2998): > 100 µM (inactive)
GI50 (SK-OV-3): 72.6 µM (inactive)
GI50 (UO-31): 22.3 µM (inactive)
GI50 (T47D): > 100 µM (inactive)
GI50 (M14): 85.1 µM (inactive)
GI50 (LOX IMVI): 83.4 µM (inactive)
GI50 (NCI/ADR-RES): 79.3 µM (inactive)
GI50 (MCF7): > 100 µM (inactive)
GI50 (CAKI-1): > 100 µM (inactive)
GI50 (HL-60): 10 µM (inactive)
GI50 (NCI-H23): 64.4 µM (inactive)
GI50 (A549): > 100 µM (inactive)
GI50 (SK-MEL-28): > 100 µM (inactive)
GI50 (SR): > 100 µM (inactive)
GI50 (HOP-62): 41.3 µM (inactive)
GI50 (PC-3): > 100 µM (inactive)
GI50 (UACC-62): 42.5 µM (inactive)
GI50 (HCT-15): > 100 µM
GI50 (MDA-N): > 100 µM (inactive)
GI50 (DU-145): > 100 µM (inactive)

CCCCCCOC(=O)/C=C/[C@]1(CO)C/C(=C/CC(C(C)C)C(C)C)C(=O)O1
GI50 (HCT-116): 13.2 µM (inactive)
GI50 (HT-29): 7.33 µM (inactive)
GI50 (OVCAR-8): 16.7 µM (inactive)
GI50 (SNB-19): 10.5 µM (inactive)
GI50 (OVCAR-3): 11.9 µM (inactive)
GI50 (SK-MEL-5): 2.13 µM (inactive)
GI50 (SK-MEL-2): 16.2 µM (inactive)
GI50 (RPMI-8226): 15.7 µM (inactive)
GI50 (MOLT-4): 1.58 µM (inactive)
GI50 (BT-549): 10.5 µM (inactive)
GI50 (OVCAR-5): 11.6 µM (inactive)
GI50 (EKVX): 1.28 µM (inactive)
GI50 (K562): 0.406 µM (active)
GI50 (MDA-MB-435): 0.738 µM (active)
GI50 (786-0): 4.36 µM (inactive)
GI50 (KM12): 16 µM (inactive)
GI50 (Malme-3M): 12.2 µM (inactive)
GI50 (SNB-75): 14.2 µM (inactive)
GI50 (ACHN): 6.95 µM (inactive)
GI50 (IGROV-1): 15.1 µM (inactive)
GI50 (NCI-H522): 12.3 µM (inactive)
GI50 (NCI-H226): 3.41 µM (inactive)
GI50 (A498): 4.82 µM (inactive)
GI50 (NCI-H460): 1.74 µM (inactive)
GI50 (Hs-578T): 4.75 µM (inactive)
GI50 (HOP-92): 12.1 µM (inactive)
GI50 (SW-620): 12.5 µM (inactive)
GI50 (SF-295): 10.4 µM (inactive)
GI50 (UACC-257): 16.5 µM (inactive)
GI50 (HCC 2998): 2.2 µM (inactive)
GI50 (SK-OV-3): 18.2 µM (inactive)
GI50 (UO-31): 4.46 µM (inactive)
GI50 (T47D): 16.8 µM (inactive)
GI50 (M14): 12.1 µM (inactive)
GI50 (OVCAR-4): 19.1 µM (inactive)
GI50 (LOX IMVI): 10.6 µM (inactive)
GI50 (NCI/ADR-RES): 13.9 µM (inactive)
GI50 (MCF7): 16 µM (inactive)
GI50 (CAKI-1): 10.9 µM (inactive)
GI50 (RXF 393): 18.2 µM (inactive)
GI50 (HL-60): 2.7 µM (inactive)
GI50 (NCI-H23): 12.2 µM (inactive)
GI50 (A549): 2.99 µM (inactive)
GI50 (SK-MEL-28): 10.4 µM (inactive)
GI50 (HOP-62): 8.41 µM (inactive)
GI50 (TK-10): 1.77 µM (inactive)
GI50 (PC-3): 11.5 µM (inactive)
GI50 (UACC-62): 13.9 µM (inactive)
GI50 (HCT-15): 14.6 µM
GI50 (MDA-N): 1.39 µM (inactive)
GI50 (SF-268): 10.9 µM (inactive)
GI50 (DU-145): 18.2 µM (inactive)
